Source: ChEMBL document CHEMBL4396925, “Malabaricone C as Natural Sphingomyelin Synthase Inhibitor against Diet-Induced Obesity and Its Lipid Metabolism in Mice” (ACS Med Chem Lett, 2019)
pIC50: −log10 of the molar value. Values belong to the compound of their own block, whether it stands above or below them. The source made the active and inactive calls. The rule behind the calls is not given here.

Experiments:
[1] = target: T1, Phosphatidylcholine:ceramide cholinephosphotransferase 1 (Homo sapiens, UniProt Q86VZ5); assay: Inhibition of SMS1 (unknown origin) stably expressed in mouse ZS cells using C6-NBD-ceramide as substrate preincubated for 30 mins followed by substrate addition and measured after 3 hrs by HPLC analysis; assay type: cell-based
T1 sequence (Q86VZ5 whole entry): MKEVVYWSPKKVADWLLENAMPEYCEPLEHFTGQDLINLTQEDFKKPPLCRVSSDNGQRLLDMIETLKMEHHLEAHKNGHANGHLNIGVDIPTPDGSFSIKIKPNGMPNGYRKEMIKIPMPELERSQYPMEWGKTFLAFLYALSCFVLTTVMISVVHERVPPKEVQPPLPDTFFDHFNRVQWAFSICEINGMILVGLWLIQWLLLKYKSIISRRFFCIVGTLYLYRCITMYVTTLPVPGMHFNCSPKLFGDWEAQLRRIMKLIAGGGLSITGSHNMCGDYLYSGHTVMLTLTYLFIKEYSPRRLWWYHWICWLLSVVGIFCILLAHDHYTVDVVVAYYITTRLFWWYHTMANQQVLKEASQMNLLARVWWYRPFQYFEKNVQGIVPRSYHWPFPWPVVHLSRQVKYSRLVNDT

[2] = target: T2, Phosphatidylcholine:ceramide cholinephosphotransferase 2 (Homo sapiens, UniProt Q8NHU3); assay: Inhibition of SMS2 (unknown origin) stably expressed in mouse ZS cells using C6-NBD-ceramide as substrate preincubated for 30 mins followed by substrate addition and measured after 3 hrs by HPLC analysis; assay type: cell-based
T2 sequence (Q8NHU3 whole entry): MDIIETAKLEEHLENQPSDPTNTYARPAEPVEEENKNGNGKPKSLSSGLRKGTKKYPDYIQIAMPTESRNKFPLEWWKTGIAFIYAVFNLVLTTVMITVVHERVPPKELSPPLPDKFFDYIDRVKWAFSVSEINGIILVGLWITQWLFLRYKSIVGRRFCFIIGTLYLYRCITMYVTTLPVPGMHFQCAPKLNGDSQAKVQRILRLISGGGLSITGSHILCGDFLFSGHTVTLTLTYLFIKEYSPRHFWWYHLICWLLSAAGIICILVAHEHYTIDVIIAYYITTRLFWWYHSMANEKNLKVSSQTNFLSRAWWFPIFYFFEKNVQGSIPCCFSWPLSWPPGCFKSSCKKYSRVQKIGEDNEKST

[3] = target: T1, Phosphatidylcholine:ceramide cholinephosphotransferase 1; assay: Noncompetitive inhibition of SMS1 (unknown origin) stably expressed in mouse ZS cells using 5 to 50 uM C6-NBD-ceramide as substrate preincubated for 30 mins followed by substrate addition and measured after 3 hrs by HPLC analysis; assay type: cell-based
[4] = target: T2, Phosphatidylcholine:ceramide cholinephosphotransferase 2; assay: Noncompetitive inhibition of SMS2 (unknown origin) stably expressed in mouse ZS cells using 5 to 50 uM C6-NBD-ceramide as substrate preincubated for 30 mins followed by substrate addition and measured after 3 hrs by HPLC analysis; assay type: cell-based
Mus musculus [5] = assay: Antiobesity activity in HFD-induced obese C57BL/6J mouse model assessed as increase in glucose tolerance administrated orally for 8 weeks and measured post treatment by OGTT assay; assay type: functional, organism-based
HepG2 [6] = assay: Lipid lowering activity in human HepG2 cells assessed as reduction in oleic acid-induced lipid droplet formation by nile red staining based fluorescence microscopic method; assay type: functional, cell-based
Mus musculus [7] = species on record: Mus musculus; assay: Antiobesity activity in HFD-induced obese C57BL/6J mouse model assessed as decrease in body weight measured after 20 days relative to control; assay type: functional; design: scale not given: the % may be the effect or the level left
[8] = Toxicity in HFD-induced obese C57BL/6J mouse model assessed as induction of leaner phenotype measured over 2 months; conditions: in vivo, 1461 h
[9] = Toxicity in HFD-induced obese C57BL/6J mouse model assessed as effect on behavior measured over 2 months; conditions: in vivo, 1461 h
[10] = Toxicity in HFD-induced obese C57BL/6J mouse model assessed as effect on health measured over 2 months; conditions: in vivo, 1461 h
MEF = assay: Cytotoxicity against MEF cells at 0.01 to 1 mM incubated for 3 hrs by CCK8 assay relative to control; assay type: cell-based; conditions: mouse, 1000 µM
HepG2 [11] = assay: Lipid lowering activity in human HepG2 cells assessed as prevention in oleic acid-induced CD36/FAT activation; assay type: functional, cell-based
[12] = target: T3, Phosphatidylcholine:ceramide cholinephosphotransferase 1 (Mus musculus, UniProt Q8VCQ6); assay: Inhibition of SMS1 in MEF cells using C6-NBD-ceramide as substrate preincubated for 1 hr followed by substrate addition and measured after 1 hr by HPLC analysis; assay type: cell-based
T3 sequence (Q8VCQ6 whole entry): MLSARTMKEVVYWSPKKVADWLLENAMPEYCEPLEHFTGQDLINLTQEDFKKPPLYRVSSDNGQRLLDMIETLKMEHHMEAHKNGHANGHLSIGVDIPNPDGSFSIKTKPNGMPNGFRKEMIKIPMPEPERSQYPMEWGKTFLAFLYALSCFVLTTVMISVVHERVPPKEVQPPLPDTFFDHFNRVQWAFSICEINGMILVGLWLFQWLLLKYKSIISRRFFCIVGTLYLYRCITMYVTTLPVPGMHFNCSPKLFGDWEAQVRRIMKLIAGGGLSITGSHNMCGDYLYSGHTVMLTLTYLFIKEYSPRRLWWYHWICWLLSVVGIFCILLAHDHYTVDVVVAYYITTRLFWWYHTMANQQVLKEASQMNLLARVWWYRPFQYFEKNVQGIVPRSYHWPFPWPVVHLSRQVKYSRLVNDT

[13] = target: T4, Phosphatidylcholine:ceramide cholinephosphotransferase 2 (Mus musculus, UniProt Q9D4B1); assay: Inhibition of SMS2 in MEF cells using C6-NBD-ceramide as substrate preincubated for 1 hr followed by substrate addition and measured after 1 hr by HPLC analysis; assay type: cell-based
T4 sequence (Q9D4B1 whole entry): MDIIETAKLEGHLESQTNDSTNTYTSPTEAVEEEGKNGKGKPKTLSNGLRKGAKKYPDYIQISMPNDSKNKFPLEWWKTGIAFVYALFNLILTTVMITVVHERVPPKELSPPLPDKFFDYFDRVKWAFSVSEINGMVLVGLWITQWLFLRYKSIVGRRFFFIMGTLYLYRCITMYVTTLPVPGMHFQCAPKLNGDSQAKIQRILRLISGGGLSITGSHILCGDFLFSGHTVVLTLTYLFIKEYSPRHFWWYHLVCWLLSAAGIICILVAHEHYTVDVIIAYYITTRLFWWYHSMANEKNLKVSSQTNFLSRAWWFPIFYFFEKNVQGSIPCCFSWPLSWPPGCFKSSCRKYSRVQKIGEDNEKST

HepG2 [14] = assay: Lipid lowering activity in human HepG2 cells assessed as reduction in oleic acid-induced intracellular TG accumulation by ELISA; assay type: functional, cell-based
HepG2 [15] = assay: Lipid lowering activity in human HepG2 cells assessed as change in oleic acid-induced free fatty acid level by ELISA; assay type: functional, cell-based
Mus musculus [16] = species on record: Mus musculus; assay: Antiobesity activity in HFD-induced obese C57BL/6J mouse model assessed as decrease fat content in liver; assay type: functional, organism-based
Mus musculus [17] = species on record: Mus musculus; assay: Antiobesity activity in HFD-induced obese C57BL/6J mouse model assessed as resistance in steatosis development in liver by oil red O-staining based histopathological analysis; assay type: functional, organism-based
Mus musculus [18] = species on record: Mus musculus; assay: Antiobesity activity in HFD-induced obese C57BL/6J mouse model assessed as improved lipid metabolism by oil red O-staining based histopathological analysis; assay type: functional, organism-based
Mus musculus [19] = species on record: Mus musculus; assay: Antiobesity activity in HFD-induced obese C57BL/6J mouse model assessed as reduction in TG level in liver by ELISA; assay type: functional, organism-based
Mus musculus [20] = species on record: Mus musculus; assay: Antiobesity activity in HFD-induced obese C57BL/6J mouse model assessed as reduction in TG level in plasma by ELISA; assay type: functional, organism-based
Mus musculus [21] = species on record: Mus musculus; assay: Antiobesity activity in HFD-induced obese C57BL/6J mouse model assessed as reduction in free fatty acid level in plasma by ELISA; assay type: functional, organism-based
[22] = target: T5, Phosphatidylcholine:ceramide cholinephosphotransferase 1 (Mus musculus) (UniProt Q8VCQ6); assay: Inhibition of SMS1 in HFD-induced obese C57BL/6J mouse liver tissue lysate using […] as substrate assessed as reduction in SM synthesis preincubated for 30 mins followed by substrate addition and measured after 3 hrs by HPLC analysis; assay type: subcellular
T5 sequence (whole entry): T3 sequence (Q8VCQ6 whole entry)

[23] = target: T6, Phosphatidylcholine:ceramide cholinephosphotransferase 2 (Mus musculus) (UniProt Q9D4B1); assay: Inhibition of SMS2 in HFD-induced obese C57BL/6J mouse liver tissue lysate using NBD-ceramide as substrate assessed as reduction in […] preincubated for 30 mins followed by substrate addition and measured after 3 hrs by HPLC analysis; assay type: subcellular
T6 sequence (whole entry): T4 sequence (Q9D4B1 whole entry)

[24] = Toxicity in HFD-induced obese C57BL/6J mouse model assessed as effect in daily food intake relative to control; conditions: in vivo
Mus musculus [25] = species on record: Mus musculus; assay: Antiobesity activity in HFD-induced obese C57BL/6J mouse model assessed as decrease in liver weight relative to control; assay type: functional, organism-based

pIC50 [1]: 5.46
pIC50 [2]: 5.60
pIC50 [3]: 5.52 to 5.70
pIC50 [4]: 5.52 to 6.00
SMILES: O=C(CCCCCCCCc1ccc(O)cc1)c1c(O)cccc1O [MALABARICONE B]

pIC50 [1]: 5.40
pIC50 [2]: 5.40
pIC50 [3]: 5.52 to 5.70
pIC50 [4]: 5.52 to 6.00
SMILES: O=C(CCCCCCCCc1ccccc1)c1c(O)cccc1O [MALABARICONE A]

pIC50 [1]: 5.52
pIC50 [2]: 5.82
pIC50 [3]: 5.52 to 5.70
pIC50 [4]: 5.52 to 6.00
pIC50 [12]: 4.89
pIC50 [13]: 4.96
inhibition [22]: Active
inhibition [23]: Active
SMILES: O=C(CCCCCCCCc1ccc(O)c(O)c1)c1c(O)cccc1O [MALABARICONE C]
Activity (Mus musculus [5]): Active
Activity (HepG2 [6]): Dose-dependent effect
Activity (Mus musculus [7]): 42.7%
Activity [8]: Toxic
Activity [9]: Non-Toxic
Activity [10]: Non-Toxic
Activity (MEF): 56 to 97%
Activity (HepG2 [11]): Dose-dependent effect
Activity (HepG2 [14]): Dose-dependent effect
Activity (HepG2 [15]): inactive
Activity (Mus musculus [16]): Active
Activity (Mus musculus [17]): Active
Activity (Mus musculus [18]): Active
Activity (Mus musculus [19]): Active
Activity (Mus musculus [20]): Active
Activity (Mus musculus [21]): Active
Activity [24]: Non-Toxic
Activity (Mus musculus [25]): Active

pIC50 [1]: 5.22
pIC50 [2]: 5.35
SMILES: O=C(CCCCCCCCc1ccc(O)cc1)c1c(O)cc(O)cc1O
